Measured values: the supplement of paper PMC7017272
± gives the standard deviation of the averaged measurements.

Assays:
Conditions in all cases: treatment time: 3 days
UT-SCC-42A [1] = experiment: relative IC50 (midpoint of the fitted curve; maximal inhibition may be below 50%); higher = less potent
Summary of the method: (§1)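 The FIMM pipeline was used to fit percent-inhibition dose–response curves, giving IC50, maximal inhibition and drug sensitivity score. Input data were CellTiter-Glo 2.0 luminescence readings, normalised to vehicle (0.1% DMSO) and cell-killing control wells, from HPV-negative HNSCC cell lines seeded at 500 cells/well in 384-well plates. Cells sat on plastic, on Matrigel or Myogel coatings (500 µg/mL), or within Matrigel or Myogel plus rat collagen I, and received compounds at five 10-fold concentrations for 3 days.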

UT-SCC-40 [2] = experiment: as above
Summary of the method: as §1

UT-SCC-24B [3] = experiment: as above
Summary of the method: as §1

UT-SCC-73 [4] = experiment: as above
Summary of the method: as §1

UT-SCC-14 = experiment: as above
Summary of the method: as §1

UT-SCC-44 [5] = experiment: as above
Summary of the method: as §1

UT-SCC-28 [6] = experiment: as above
Summary of the method: as §1

UT-SCC-81 = experiment: as above
Summary of the method: as §1

UT-SCC-42B = experiment: as above
Summary of the method: as §1

UT-SCC-42A [7] = experiment: maximal % inhibition of viability relative to DMSO; higher = stronger effect
Summary of the method: as §1

UT-SCC-40 [8] = experiment: as above
Summary of the method: as §1

UT-SCC-24B [9] = experiment: as above
Summary of the method: as §1

UT-SCC-8 = experiment: as above
Summary of the method: as §1

UT-SCC-106A [10] = experiment: as above
Summary of the method: as §1

UT-SCC-73 [11] = experiment: as above
Summary of the method: as §1

UT-SCC-44 [12] = experiment: as above
Summary of the method: as §1

UT-SCC-28 [13] = experiment: as above
Summary of the method: as §1

UT-SCC-106A [14] = experiment: relative IC50 (midpoint of the fitted curve; maximal inhibition may be below 50%); higher = less potent
Summary of the method: as §1

[15] = culture condition: embedded in Myogel + collagen I
[16] = culture condition: on top of Matrigel
[17] = culture condition: on top of Myogel
[18] = culture condition: plastic 2D (no matrix)
[19] = culture condition: embedded in Matrigel

CO[C@H]1C[C@@H]2CC[C@@H](C)[C@@](O)(O2)C(=O)C(=O)N2CCCC[C@H]2C(=O)O[C@H]([C@H](C)C[C@@H]2CC[C@@H](O)[C@H](OC)C2)CC(=O)[C@H](C)/C=C(\C)[C@@H](O)[C@@H](OC)C(=O)[C@H](C)C[C@H](C)/C=C/C=C/C=C/1C [Sirolimus]
relative IC50 (UT-SCC-42A [1]; [15]): 3.22 nM
relative IC50 (UT-SCC-42A [1]; [16]): 2.37 nM
relative IC50 (UT-SCC-42A [1]; [17]): 2.33 nM
relative IC50 (UT-SCC-42A [1]; [18]): 2.24 nM
relative IC50 (UT-SCC-40 [2]; [18]): > 98.9 nM
relative IC50 (UT-SCC-24B [3]; [19]): 0.965 nM
relative IC50 (UT-SCC-24B [3]; [17]): 2.6 nM
relative IC50 (UT-SCC-24B [3]; [18]): 2.95 nM
relative IC50 (UT-SCC-73 [4]; [15]): 26.3 nM
relative IC50 (UT-SCC-73 [4]; [17]): 12 nM
relative IC50 (UT-SCC-73 [4]; [18]): 31.8 nM
relative IC50 (UT-SCC-14; [19]): 0.687 nM
relative IC50 (UT-SCC-14; [15]): 0.9 nM
relative IC50 (UT-SCC-14; [16]): 1.24 nM
relative IC50 (UT-SCC-14; [17]): 1.06 nM
relative IC50 (UT-SCC-44 [5]; [15]): 2.41 nM
relative IC50 (UT-SCC-44 [5]; [16]): 1.79 nM
relative IC50 (UT-SCC-44 [5]; [18]): 1.88 nM
relative IC50 (UT-SCC-28 [6]; [19]): 2.04 nM
relative IC50 (UT-SCC-28 [6]; [16]): 1.16 nM
relative IC50 (UT-SCC-28 [6]; [18]): 1.2 nM
relative IC50 (UT-SCC-81; [15]): 2.71 nM
relative IC50 (UT-SCC-81; [16]): 1.95 nM
relative IC50 (UT-SCC-81; [17]): 1.55 nM
relative IC50 (UT-SCC-81; [18]): 1.4 nM
relative IC50 (UT-SCC-42B; [17]): > 98.9 nM
maximal % inhibition of viability (UT-SCC-42A [7]; [19]): 66.8 ± 8.8%
maximal % inhibition of viability (UT-SCC-42A [7]; [15]): 52.5 ± 2.1%
maximal % inhibition of viability (UT-SCC-42A [7]; [16]): 64.7 ± 1.1%
maximal % inhibition of viability (UT-SCC-42A [7]; [17]): 61.33 ± 0.42%
maximal % inhibition of viability (UT-SCC-42A [7]; [18]): 55.5 ± 0.36%
maximal % inhibition of viability (UT-SCC-40 [8]; [19]): 91.7 ± 5%
maximal % inhibition of viability (UT-SCC-40 [8]; [15]): 92 ± 2%
maximal % inhibition of viability (UT-SCC-40 [8]; [16]): 86.8 ± 0.91%
maximal % inhibition of viability (UT-SCC-40 [8]; [17]): 75.6 ± 0.97%
maximal % inhibition of viability (UT-SCC-40 [8]; [18]): 79.1 ± 2.9%
maximal % inhibition of viability (UT-SCC-24B [9]; [19]): 93.17 ± 0.71%
maximal % inhibition of viability (UT-SCC-24B [9]; [15]): 93.9 ± 1.8%
maximal % inhibition of viability (UT-SCC-24B [9]; [16]): 91.5 ± 0.2%
maximal % inhibition of viability (UT-SCC-24B [9]; [17]): 91.1 ± 2.1%
maximal % inhibition of viability (UT-SCC-24B [9]; [18]): 90.4 ± 1.4%
maximal % inhibition of viability (UT-SCC-8; [19]): 96.37 ± 0.95%
maximal % inhibition of viability (UT-SCC-8; [15]): 94.2 ± 1.6%
maximal % inhibition of viability (UT-SCC-8; [16]): 95.77 ± 0.31%
maximal % inhibition of viability (UT-SCC-8; [17]): 94.7 ± 0.35%
maximal % inhibition of viability (UT-SCC-8; [18]): 95.07 ± 0.45%
maximal % inhibition of viability (UT-SCC-106A [10]; [19]): 53.1 ± 13%
maximal % inhibition of viability (UT-SCC-106A [10]; [15]): 35.2 ± 3%
maximal % inhibition of viability (UT-SCC-106A [10]; [16]): 52.9 ± 3.1%
maximal % inhibition of viability (UT-SCC-106A [10]; [17]): 41.1 ± 1.3%
maximal % inhibition of viability (UT-SCC-106A [10]; [18]): 57.3 ± 2.8%
maximal % inhibition of viability (UT-SCC-73 [11]; [19]): 84.6 ± 1.5%
maximal % inhibition of viability (UT-SCC-73 [11]; [15]): 78.8 ± 4.7%
maximal % inhibition of viability (UT-SCC-73 [11]; [16]): 83.3 ± 2.9%
maximal % inhibition of viability (UT-SCC-73 [11]; [17]): 80.27 ± 0.76%
maximal % inhibition of viability (UT-SCC-73 [11]; [18]): 79.8 ± 1.5%
maximal % inhibition of viability (UT-SCC-44 [12]; [19]): 48.7 ± 9.5%
maximal % inhibition of viability (UT-SCC-44 [12]; [15]): 72.6 ± 1.9%
maximal % inhibition of viability (UT-SCC-44 [12]; [16]): 61 ± 2.4%
maximal % inhibition of viability (UT-SCC-44 [12]; [17]): 72.5 ± 1.7%
maximal % inhibition of viability (UT-SCC-44 [12]; [18]): 72.3 ± 3.1%
maximal % inhibition of viability (UT-SCC-28 [13]; [19]): 35 ± 13%
maximal % inhibition of viability (UT-SCC-28 [13]; [15]): 57.3 ± 1.4%
maximal % inhibition of viability (UT-SCC-28 [13]; [16]): 43.7 ± 4.2%
maximal % inhibition of viability (UT-SCC-28 [13]; [18]): 34.8 ± 4.6%

Cn1c(=O)c(F)c(Nc2ccc(I)cc2F)c2c(=O)n(C[C@@H](O)CO)cnc21 [TAK-733]
relative IC50 (UT-SCC-42A [1]; [19]): 4.26 nM
relative IC50 (UT-SCC-42A [1]; [15]): 11.3 nM
relative IC50 (UT-SCC-42A [1]; [16]): 4.67 nM
relative IC50 (UT-SCC-42A [1]; [18]): 9.23 nM
relative IC50 (UT-SCC-40 [2]; [19]): 2.68 nM
relative IC50 (UT-SCC-40 [2]; [15]): 6.76 nM
relative IC50 (UT-SCC-40 [2]; [16]): 4.29 nM
relative IC50 (UT-SCC-40 [2]; [17]): 13.8 nM
relative IC50 (UT-SCC-40 [2]; [18]): 10.6 nM
relative IC50 (UT-SCC-24B [3]; [15]): 62.7 nM
relative IC50 (UT-SCC-24B [3]; [16]): 39.5 nM
relative IC50 (UT-SCC-106A [14]; [19]): 2.16 nM
relative IC50 (UT-SCC-106A [14]; [16]): 2.3 nM
relative IC50 (UT-SCC-106A [14]; [18]): 2.3 nM
relative IC50 (UT-SCC-73 [4]; [19]): 2.4 nM
relative IC50 (UT-SCC-73 [4]; [15]): 3.82 nM
relative IC50 (UT-SCC-73 [4]; [16]): 3.23 nM
relative IC50 (UT-SCC-73 [4]; [17]): 9.54 nM
relative IC50 (UT-SCC-73 [4]; [18]): 5.35 nM
relative IC50 (UT-SCC-14; [15]): 9.53 nM
relative IC50 (UT-SCC-14; [16]): 14.3 nM
relative IC50 (UT-SCC-14; [17]): 16.1 nM
relative IC50 (UT-SCC-44 [5]; [19]): 3.37 nM
relative IC50 (UT-SCC-44 [5]; [15]): 108 nM
relative IC50 (UT-SCC-44 [5]; [18]): 7.56 nM
relative IC50 (UT-SCC-81; [16]): 5.89 nM
relative IC50 (UT-SCC-81; [18]): 151 nM
relative IC50 (UT-SCC-42B; [19]): 1.54 nM
relative IC50 (UT-SCC-42B; [17]): 80.8 nM
maximal % inhibition of viability (UT-SCC-42A [7]; [19]): 57.9 ± 2.6%
maximal % inhibition of viability (UT-SCC-42A [7]; [15]): 41.5 ± 27%
maximal % inhibition of viability (UT-SCC-42A [7]; [16]): 59.9 ± 5.2%
maximal % inhibition of viability (UT-SCC-42A [7]; [17]): 42.1 ± 5.3%
maximal % inhibition of viability (UT-SCC-42A [7]; [18]): 52.7 ± 3.6%
maximal % inhibition of viability (UT-SCC-40 [8]; [19]): 78.2 ± 1.2%
maximal % inhibition of viability (UT-SCC-40 [8]; [15]): 64 ± 2.1%
maximal % inhibition of viability (UT-SCC-40 [8]; [16]): 72.9 ± 2.1%
maximal % inhibition of viability (UT-SCC-40 [8]; [17]): 51 ± 0.89%
maximal % inhibition of viability (UT-SCC-40 [8]; [18]): 53.7 ± 0.74%
maximal % inhibition of viability (UT-SCC-24B [9]; [19]): 67.3 ± 1.5%
maximal % inhibition of viability (UT-SCC-24B [9]; [15]): 67.2 ± 1.2%
maximal % inhibition of viability (UT-SCC-24B [9]; [16]): 64.3 ± 1.3%
maximal % inhibition of viability (UT-SCC-24B [9]; [17]): 55.5 ± 2.2%
maximal % inhibition of viability (UT-SCC-24B [9]; [18]): 79.9 ± 1.1%
maximal % inhibition of viability (UT-SCC-8; [19]): 74.4 ± 12%
maximal % inhibition of viability (UT-SCC-8; [15]): 35.5 ± 26%
maximal % inhibition of viability (UT-SCC-8; [16]): 65.3 ± 12%
maximal % inhibition of viability (UT-SCC-8; [17]): 46.8 ± 21%
maximal % inhibition of viability (UT-SCC-8; [18]): 56.1 ± 17%
maximal % inhibition of viability (UT-SCC-106A [10]; [19]): 52.3 ± 2.4%
maximal % inhibition of viability (UT-SCC-106A [10]; [15]): 19 ± 5.5%
maximal % inhibition of viability (UT-SCC-106A [10]; [16]): 61.9 ± 4.9%
maximal % inhibition of viability (UT-SCC-106A [10]; [17]): 17.8 ± 1.7%
maximal % inhibition of viability (UT-SCC-106A [10]; [18]): 63.4 ± 1.2%
maximal % inhibition of viability (UT-SCC-73 [11]; [19]): 79.1 ± 1.5%
maximal % inhibition of viability (UT-SCC-73 [11]; [15]): 48.3 ± 16%
maximal % inhibition of viability (UT-SCC-73 [11]; [16]): 74.1 ± 1%
maximal % inhibition of viability (UT-SCC-73 [11]; [17]): 59.9 ± 4.8%
maximal % inhibition of viability (UT-SCC-73 [11]; [18]): 68.4 ± 3.9%
maximal % inhibition of viability (UT-SCC-44 [12]; [19]): 75.4 ± 0.62%
maximal % inhibition of viability (UT-SCC-44 [12]; [15]): 37.1 ± 8.1%
maximal % inhibition of viability (UT-SCC-44 [12]; [16]): 64.6 ± 10%
maximal % inhibition of viability (UT-SCC-44 [12]; [17]): 38.3 ± 4.8%
maximal % inhibition of viability (UT-SCC-44 [12]; [18]): 53.6 ± 3.3%
maximal % inhibition of viability (UT-SCC-28 [13]; [19]): 36.6 ± 7.2%
maximal % inhibition of viability (UT-SCC-28 [13]; [15]): 22.7 ± 21%
maximal % inhibition of viability (UT-SCC-28 [13]; [16]): 41.5 ± 1.7%
maximal % inhibition of viability (UT-SCC-28 [13]; [18]): 25.6 ± 1%
